Tested on: NF-κ B activation
Experiment: Inhibitory activity of NF-κB activation, luciferase reporter assay under TNF-α stimulation in HepG2
Assay type: cell-based, human
Details: HepG2, TNF-α 40 ng/ml, 4 hours; for inhibition at 1 µg/mL / inhibition at 10 µg/mL: Homo sapiens, read-out: Inhibitory rate against NF-κB activation (%)
Experimental: Measurement of Inhibitory Activity of NF-κB activation
Using a transfection reagent (Effectene; QIAGEN), the human hepatoma cell strain HepG2 was transfected with a plasmid (pNF κ B-Luc Reporter Plasmid; […]) integrated with an oligonucleotide having five tandem copies of NF-κ B binding sequences([…]) on a upstream region of firefly luciferase gene(Luc) according to the QIAGEN's protocol, and the cells were incubated for 6 to 24 hours. After addition of TNF-α (40 ng/ml) in the presence or absence of a test compound, the cells were incubated for 4 hours, and intracellular luciferase activity was measured by using PicaGene LT (TOYO INK MFG Co., Ltd.) and a chemical luminescence measurement apparatus ([…]luor Plus; TECAN). The inhibitory ratio was measured as a ratio relative to the value of the luciferase activity in the absence of the test compound.

SMILES	Inhibitory rate against NF-κB activation (%) (Drug concentration at 1 μg/mL)	Inhibitory rate against NF-κB activation (%) (Drug concentration at 10 μg/mL)	inhibition at 1 µg/mL (Drug concentration at 1 μg/mL)	inhibition at 10 µg/mL (Drug concentration at 10 μg/mL)
Cc1cc(C)cc(NC(=O)c2cc(Br)ccc2O)c1 [compound 137]	86.3%	92.6%		
O=C(Nc1cc(F)cc(C(F)(F)F)c1)c1cc(Cl)ccc1O [compound 85]	94.7%	98.9%		
O=C(Nc1nnc(C(F)(F)F)s1)c1cc(Br)ccc1O [compound 238]	26.1%	90.3%		
O=C(Nc1cc(C(F)(F)F)cc(C(F)(F)F)c1)c1cc(NC(=S)Nc2ccccc2)ccc1O [compound 47]	51.8%	97.2%		
Cc1ccc(O)c(C(=O)Nc2cc(C(F)(F)F)ccc2C)c1 [compound 102]	89.3%	98.3%		
CC(C)(C)c1nc(NC(=O)c2cc(Br)ccc2O)sc1N1CCN(c2ccccc2)CC1 [compound 207, 5-Bromo-N-{4-[(1,1-dimethyl)ethyl]-5-(4-phenylpiperazin-1-yl)thiazol-2-yl}-2-hydroxybenzamide]			92.5%	95.9%
O=C(Nc1cc(C(F)(F)F)ccc1OCC(F)(F)F)c1cc(Cl)ccc1O [compound 113]	90.5%	96.2%		
O=C(Nc1nc(Cc2ccccc2)c(-c2ccccc2)s1)c1cc(Br)ccc1O [compound 212]	79.7%	95.0%		
COc1cc(NC(=O)c2cc(Cl)ccc2O)cc(C(F)(F)F)c1 [compound 105]	94.6%	97.5%		
O=C(Nc1cc(C(F)(F)F)ccc1N1CCCCC1)c1cc(Cl)ccc1O [compound 116]	90.0%	97.3%		
O=C(Nc1cc(Cl)cc(Cl)c1)c1cc(Br)cc(Br)c1O [compound 128]	91.4%	95.1%		
COc1cccc(C(=O)Nc2cc(C(F)(F)F)cc(C(F)(F)F)c2)c1O [compound 59]	41.9%	94.7%		
Cc1cc(Br)cc(C(=O)Nc2cc(C(F)(F)F)cc(C(F)(F)F)c2)c1O [compound 258]	>99.9%			
O=C(Nc1cc(C(F)(F)F)cc(C(F)(F)F)c1)c1cc([N+](=O)[O-])ccc1O [compound 8, N-[3,5-bis(trifluoromethyl)phenyl]-2-hydroxy-5-nitrobenzamide]			92%	99.2%
O=C(Nc1cc(C(F)(F)F)cc(C(F)(F)F)c1)c1cc(Br)cc(-c2ccccc2)c1O [compound 259]	>99.9%			
CCC(C)(C)c1ccc(O)c(NC(=O)c2cc(Cl)ccc2O)c1 [compound 177]	87.8%	99.4%		
CCC(C)(C)c1ccc(Oc2ccccc2)c(NC(=O)c2cc(Cl)ccc2O)c1 [compound 164]	97.6%	98.3%		
Cc1ccc(O)c(C(=O)Nc2cc(C(C)(C)C)cc(C(C)(C)C)c2)c1 [compound 147]	38.9%	91.0%		
O=C(Nc1cc(C(F)(F)F)cc(C(F)(F)F)c1)c1cc(F)ccc1O [compound 3]	81.5%	94.3%		

SMILES	Inhibitory rate against NF-κB activation (%) (Drug concentration at 1 μg/mL)	Inhibitory rate against NF-κB activation (%) (Drug concentration at 10 μg/mL)	inhibition at 1 µg/mL (Drug concentration at 1 μg/mL)	inhibition at 10 µg/mL (Drug concentration at 10 μg/mL)
CC(C)(C)c1cc(NC(=O)c2cc(Cl)cnc2O)cc(C(C)(C)C)c1 [compound 184]	53.6%	63.8%		
Cc1sc(NC(=O)c2cc(Br)ccc2O)nc1-c1ccccc1 [compound 192]	83.6%	94.4%		
O=C(Nc1cc(C(F)(F)F)ccc1Cl)c1cc(Br)ccc1O [compound 90]	88.9%	94.1%		
CC(C)(C)c1ccc(O)c(C(=O)Nc2cc(C(F)(F)F)cc(C(F)(F)F)c2)c1 [compound 11, N-[3,5-Bis(trifluoromethyl)phenyl]-5-[(1,1-dimethyl)ethyl]-2-hydroxybenzamide]			92.9%	98.3%
O=C(Nc1ccccc1)Nc1ccc(O)c(C(=O)Nc2cc(C(F)(F)F)cc(C(F)(F)F)c2)c1 [compound 46]	20.5%	88.4%		
CN1CCN(c2sc(NC(=O)c3cc(Br)ccc3O)nc2C(C)(C)C)CC1 [compound 206, 5-Bromo-N-{4-[(1,1-dimethyl)ethyl]-5-(4-methylpiperazin-1-yl)thiazol-2-yl}-2-hydroxybenzamide]			36.3%	89.6%
O=C(Nc1cc(C(F)(F)F)cc(C(F)(F)F)c1)c1c(O)c(Cl)cc(Cl)c1Cl [compound 61]	95.1%	97.2%		
COC(=O)c1ccc(O)c(C(=O)Nc2cc(C(F)(F)F)cc(C(F)(F)F)c2)c1 [compound 35, N-[3,5-bis(trifluoromethyl)phenyl]-4-hydroxyisophthalamic acid methyl ester]			88.2%	96.4%
COc1ccc(-c2csc(NC(=O)c3cc(Cl)ccc3O)n2)cc1 [compound 264, 5-Chloro-2-hydroxy-N-[4-(4-methoxyphenyl)thiazol-2-yl]benzamide]			> 99.9%	
O=C(Nc1ccc(O)c(C(=O)Nc2cc(C(F)(F)F)cc(C(F)(F)F)c2)c1)c1ccccc1 [compound 45]		63.4%		
O=C(Nc1nc(-c2ccccc2)c(C(=O)NCCc2ccccc2)s1)c1cc(Br)ccc1O [compound 223]	33.3%	60.4%		
COc1ccc(OC)c(NC(=O)c2cc(Br)ccc2O)c1 [compound 142]	32.4%	95.7%		
O=C(Nc1cc(C(F)(F)F)ccc1F)c1cc(Cl)ccc1O [compound 87]	93.1%	95.9%		
O=C(Nc1cc(C(F)(F)F)ccc1Oc1ccc2ccccc2c1)c1cc(Cl)ccc1O [compound 110]	96.5%	98.7%		
Cc1ccc(C)c(NC(=O)c2cc(Cl)ccc2O)c1 [compound 153]	88.3%	97.1%		
O=C(Nc1cc(C(F)(F)F)ccc1C(F)(F)F)c1cc(Br)ccc1O [compound 83]	95.7%	98.3%		
O=C(Nc1nc(-c2ccc(Cl)cc2Cl)cs1)c1cc(Cl)ccc1O [compound 255, 5-Chloro-2-hydroxy-N-[4-(2,4-dichlorophenyl)thiazol-2-yl]benzamide]			> 99.9%	
O=C(Nc1cc(Cl)cc(Cl)c1)c1cc2ccccc2cc1O [compound 181]		95.1%		
O=C(Nc1cc(F)cc(F)c1)c1cc(Cl)ccc1O [compound 180]	90.7%	93.7%		
